Here are results for four compounds from patent US9545386B2, “Methods of treating infectious diseases” (SLIPPERY ROCK UNIVERSITY FOUNDATION, INC., priority 2007, dated 2017).

The subject of one test is H. contortus. To be noted: background statement; cited from earlier work.
The next test has as its system P. trichosuri. Particulars: doramectin 0.6 mg/kg, in vivo, p<0.05, Ralston et al. (2001); cited from earlier work.
The test system of test [1] is Haemonchus contortus infective larvae. The test can be described thus: In vitro bioassay of infective larvae, immobilization and lethal doses (eosin, Probit). It is filed as cell-based. To be noted: H. contortus infective larvae; for 48 hr ID50 ± 95% confidence intervals: immobilize 50%; for 48 hr ID50 ± 95% confidence intervals / 48 hr ID90 ± 95% confidence intervals / 48 hr LD50 ± 95% confidence intervals / 48 hr LD90 ± 95% confidence intervals: 48 hr in vitro; for 48 hr ID90 ± 95% confidence intervals: immobilize 90%; for 48 hr LD50 ± 95% confidence intervals: kill 50%; for 48 hr LD90 ± 95% confidence intervals: kill 90%. On the procedure: (§1) Strongyloides stercoralis infective larvae were harvested from charcoal coprocultures in nematode saline solution. The larvae were supplied by the Parasitology Laboratory, Department of Pathobiology, University of Pennsylvania. The strain of larvae was a human strain of the parasitic nematode that had been maintained for over ten years in canines by daily prednisolone treatment (2 mg/kg per os, once daily. Parastrongyloides trichosuri and Ancylostoma caninum infective larvae were also supplied by the same source as for S. stercoralis. Haemonchus contortus infective larvae were harvested from charcoal coprocultures in nematode saline solution prepared from infected sheep feces obtained from Merck Parasites Laboratory.
(§2) The 24 hr 50% and 90% immobilization doses (ID50 and ID90), and 50% and 90% lethal doses (LD50 and LD90) of eryngial (mg/ml) were investigated in vitro using infective larvae of all four parasitic nematodes. Each species was exposed to a range of eryngial dilutions by adding known volumes of a homogeneous ‘wormy’ solution (infective larvae in nematode saline solution) to known volumes of an eryngial stock suspension (10 mg/ml of nematode saline solution). Each dilution, including the control (0 mg/ml eryngial), was prepared in triplicate and also contained eosin (0.01%, w/v), which was used as an indicator of mortality, and Triton X-100 (1.0%, v/v).
(§3) Using S. stercoralis, P. trichosuri, H. contortus and A. caninum infective larvae, eryngial dilutions, excluding the controls, ranged from 0.05 to 1.15 mg/ml; 0.01 to 1.0 mg/ml; 0.5 to 2.0 mg/ml; and 0.8 to 3.0 mg/ml, respectively. Sub-sample (10 μl) counts of larvae that were mobile, immobile but not stained and stained, were done at the start of each bioassay and at 24 hr intervals for two days. Each sub-sample contained approximately 50 infective larvae.
(§4) The 48-hr immobilization doses (ID50 and ID90) and lethal doses (LD50 and LD90) of eryngial and ivermectin also were investigated, using S. stercoralis and H. contortus infective larvae. Each bioassay was conducted as described hereinabove. Using S. stercoralis and H. contortus infective larvae, ivermectin dilutions (not including the controls) ranged from 0.03 to 0.3 mg/ml and from 0.009 to 0.1 mg/ml, respectively.
(§5) Probit analysis was used to determine 24 hr and 48 hr immobilization and lethal doses for eryngial and ivermectin, respectively.

For test [2], the system named is Strongyloides stercoralis infective larvae. Described as above. It is filed as cell-based. To be noted: S. stercoralis infective larvae, 48 hr in vitro; for 48 hr ID50 ± 95% confidence intervals: immobilize 50%; for 48 hr ID90 ± 95% confidence intervals: immobilize 90%; for 48 hr LD50 ± 95% confidence intervals: kill 50%; for 48 hr LD90 ± 95% confidence intervals: kill 90%. On the procedure:
as §1, §2, §3, §4, §5

For the next test, the system named is A. caninum. Particulars: in vivo; cited from earlier work.
Test [3] has as its system A. canimun life-cycle stages. To be noted: in vitro, Wang et al. (1989), cited from earlier work.

For `CCCSc1ccc2nc(NC(=O)OC)[nH]c2c1` [Albendazole, albendazole], the “efficacy rates against H. contortus infections” value in the test on H. contortus is given as 100%.

On to `CO[C@H]1C[C@H](O[C@H]2[C@H](C)O[C@@H](O[C@@H]3/C(C)=C/C[C@@H]4C[C@@H](C[C@]5(C=C[C@H](C)[C@@H](C6CCCCC6)O5)O4)OC(=O)[C@@H]4C=C(C)[C@@H](O)[C@H]5OC/C(=C\C=C\[C@@H]3C)[C@]54O)C[C@@H]2OC)O[C@@H](C)[C@@H]1O` [doramectin], for which the “reduction of P. trichosuri infection in possums” value in the test with P. trichosuri is reported as 99%.

Take `c1ccc(C2CN3CCSC3=N2)cc1` (stereo not shown) [tetramisole]: the “efficacy rates against H. contortus infections” value in the test on H. contortus is 100%.

For the compound ivermectin [reference compound], in test [1], the “48 hr ID50 ± 95% confidence intervals” value was 0.011 (0.001-0.022) mg/ml, the “48 hr ID90 ± 95% confidence intervals” value is on record as 0.059 (0.043-0.092) mg/ml, the “48 hr LD50 ± 95% confidence intervals” value was 4.990 (4.572-5.954) mg/ml and the “48 hr LD90 ± 95% confidence intervals” value is reported as 6.949 (5.858-10.10) mg/ml. In addition, in test [1] (listed as ivermectin), the “48 hr ID50 ± 95% confidence intervals” value turned out to be 0.011 mg/mL, the “48 hr ID90 ± 95% confidence intervals” value amounted to 0.059 mg/mL, the “48 hr LD50 ± 95% confidence intervals” value is 4.990 mg/mL and the “48 hr LD90 ± 95% confidence intervals” value amounted to 6.949 mg/mL. Besides, in test [1] (ivermectin vs eryngial), the “times greater in potency than eryngial (48 hr ID90)” value was 12.9 times and the “times more effective than eryngial at immobilizing (48 hr ID50)” value is 28.5 times. In addition, in test [2], the “48 hr ID50 ± 95% confidence intervals” value is 0.136 (0.114-0.157) mg/ml, the “48 hr ID90 ± 95% confidence intervals” value is reported as 0.297 (0.251-0.377) mg/ml, the “48 hr LD50 ± 95% confidence intervals” value is 0.306 (0.203-0.442) mg/ml and the “48 hr LD90 ± 95% confidence intervals” value is listed as 1.038 (0.665-2.498) mg/ml. In test [2] (listed as ivermectin), the “48 hr ID50 ± 95% confidence intervals” value was found to be 0.136 mg/mL, the “48 hr ID90 ± 95% confidence intervals” value amounted to 0.297 mg/mL, the “48 hr LD50 ± 95% confidence intervals” value was 0.306 mg/mL and the “48 hr LD90 ± 95% confidence intervals” value is 1.038 mg/mL. The “effectiveness in infected dogs” value in the test on A. caninum was “clearing the infection completely”. Further, in test [3] (A. caninum L3 larvae), the “dose that killed L3 larvae” value is 2.5 mg/mL. Moreover, in test [3] (A. caninum adult worms), the “dose that killed adult worms” value is 560 mg/mL. The “dose detrimental to eggs inside the uterine tissue of female worms” value in test [3] (A. caninum eggs) is 1000 mg/mL.
